Assay results taken from patent US8304547B2, “Azolecarboxamide compound or salt thereof” (Astellas Pharma Inc., priority 2007, dated 2012).
Structures can show the parent of a compound that is named as a salt.

Columns and labels:
human trkA receptor = target: T1, human trkA receptor (Homo sapiens, UniProt P04629); assay: trkA receptor inhibitory activity using a cell expressing a nerve growth factor receptor (NGF-dependent increase of calcium concentration in cells, FLIPR); assay type: cell-based; settings: HEK293 cells stably expressing human trkA receptor; NGF-stimulated change in Ca concentration in cells
T1 construct: expressed in transfected cells
Method: Experiment to Measure trkA Receptor Inhibitory Activity Using a Cell Expressing a Nerve Growth Factor Receptor (trkA Receptor)
The trkA receptor inhibitory activity was measured by using the increase in a ligand-dependent calcium concentration in cells as an index. HEK293 cells (American Type Culture Collection) that stably expressed a human trkA receptor were dispensed onto a 96-well poly-D-lysine-coated plate (Product Name: Biocoat, PDL96W black/clear, by Nippon Becton Dickinson) to a 2×10^4 cells/well on the day before the experiment, and incubated overnight at 37° C. under 5% carbon dioxide (CO2) in a culture medium containing 10% fetal bovine serum (FBS) (Product Name: DMEM, Invitrogen Corporation). The culture medium was replaced by a loading buffer (a washing solution containing a 1.5 μM fluorescent-labelled indicator (Product Name: Fluo4-AM, Tong Ren Tang Technologies Co. Ltd.): a Hank's balanced salt solution (HBSS), 20 mM 2-[4-(2-hydroxyethyl)-1-piperazinyl]ethanesulfonic acid (HEPES)-sodium hydroxide (NaOH), 2.5 mM Probenecid, and 0.1% bovine serum albumin (BSA)), and left to stand at room temperature for 3 hours, and the cells were washed using a plate washer (Product Name: ELx405, BIO-TEK instrument Corporation) in which a washing solution had been set up. The compound that had been preliminarily dissolved and diluted in a washing solution was added thereto, and set up in a system for measuring a calcium (Ca) concentration in a cell (Product Name: FLIPR, Molecular Devices Corporation). After 5 minutes, a nerve growth factor (NGF, mouse derived 2.5S, Alomone) corresponding to 80% stimulation of a maximum response was added (to a final concentration of about 100 to 150 ng/ml) to measure the change in Ca concentrations in cells. The difference between a maximum value and a minimum value in the change of Ca concentrations in cells was determined, and kept as measurement data. With a response upon addition of NGF being set at 0%, and a response upon addition of a buffer being set at 100%, the concentration causing 50% inhibition was determined as an IC50 value. In the table, Ex represents Example Compound No. as below (the same applies hereinafter). From the results of this test, it was confirmed that the representative compounds of the present invention as below have a trkA receptor inhibitory action.

[1] = test system: enhanced vascular permeability caused by Rat NGF; assay: Inhibitory activity on enhanced vascular permeability caused by Rat NGF (Evans blue); assay type: in vivo; settings: Wistar female rat, 10 mg/kg oral, NGF intracutaneously 60 minutes after administration; for inhibition in vivo at 10 mg/kg: 1 h, read-out: Inhibitory rate
Method: Evaluation of the Inhibitory Activity of the Compound on Enhanced Vascular Permeability Caused by Rat NGF
The in vivo NGF inhibitory activity of the compound was examined. A Wistar female rat (Japan SLC) was forced to be orally administered with the compound (0.5% methylcellulose solution) 10 mg/3 ml/kg or a solvent (0.5% methylcellulose solution) 3 ml/kg. Under ether anesthesia performed at 60 minutes after administration, physiological saline or 1 μg/ml NGF (NGF, mouse derived 2.5 S, Alomone) was intracutaneously administered to the back at 50 μl/site, and then immediately a 1% Evans blue solution (dissolved in physiological saline) was administered through the caudal vein at 3 ml/kg. At a time point of 10 minutes after administration, the skin on the back was taken, and shaken in formamide for 16 hours. After shaking, an absorbance of Evans blue extracted in formamide was measured by an absorbance meter (wavelength: 620 nm), and the concentration was determined by a calibration curve method. A value obtained by subtracting the concentration of Evans blue at a site administered with physiological saline from the concentration of Evans blue at a site administered with NGF was determined as an NGF-dependent action, and an inhibitory rate of the compound group was determined with a group administered with a solvent being set at 100%. In this test, it was confirmed that the representative compounds as below of the present invention have an excellent inhibitory action on enhanced vascular permeability caused by Rat NGF.

[2] = test system: rat having urinary frequency caused by cyclophosphamide (CPA); assay: Action on a rat having urinary frequency caused by cyclophosphamide (CPA); assay type: in vivo; settings: CPA-treated Wistar female rat, value before administration = 100%
Method: Action of the Compound on a Rat Having Urinary Frequency Caused by Cyclophosphamide (CPA)
CPA (150 mg/5 ml/kg) was intraperitoneally administered to a Wistar female rat (Charles River Laboratories), and after 2 days, the experiment was carried out. It was forced to be orally administered with distilled water (30 ml/kg), and then confined in a metabolic cage, and urine weight and urination frequency were continuously measured for 1 hour. 3 or 10 mg/5 ml/kg of the compound (0.5% methylcellulose solution), or 5 ml/kg of a solvent (0.5% methylcellulose solution) was orally administered, and after 5 to 30 minutes, urination functions were measured after water-loading in the same manner as described above. A total urine weight was divided by the total urination frequency to determine an effective bladder capacity. With the value before administration of the compound being set at 100%, a rate of change in the effective bladder capacity caused by administration of the compound was determined.
In this test, at 2 days after CPA treatment, the effective bladder capacity had decreased (about 0.5 ml), indicating urinary frequency.

[3] = oral dose 10 mg/kg, evaluation period 15-75 minutes after administration
[4] = oral dose 10 mg/kg, evaluation period 5-65 minutes after administration

T1 sequence (P04629 33-796): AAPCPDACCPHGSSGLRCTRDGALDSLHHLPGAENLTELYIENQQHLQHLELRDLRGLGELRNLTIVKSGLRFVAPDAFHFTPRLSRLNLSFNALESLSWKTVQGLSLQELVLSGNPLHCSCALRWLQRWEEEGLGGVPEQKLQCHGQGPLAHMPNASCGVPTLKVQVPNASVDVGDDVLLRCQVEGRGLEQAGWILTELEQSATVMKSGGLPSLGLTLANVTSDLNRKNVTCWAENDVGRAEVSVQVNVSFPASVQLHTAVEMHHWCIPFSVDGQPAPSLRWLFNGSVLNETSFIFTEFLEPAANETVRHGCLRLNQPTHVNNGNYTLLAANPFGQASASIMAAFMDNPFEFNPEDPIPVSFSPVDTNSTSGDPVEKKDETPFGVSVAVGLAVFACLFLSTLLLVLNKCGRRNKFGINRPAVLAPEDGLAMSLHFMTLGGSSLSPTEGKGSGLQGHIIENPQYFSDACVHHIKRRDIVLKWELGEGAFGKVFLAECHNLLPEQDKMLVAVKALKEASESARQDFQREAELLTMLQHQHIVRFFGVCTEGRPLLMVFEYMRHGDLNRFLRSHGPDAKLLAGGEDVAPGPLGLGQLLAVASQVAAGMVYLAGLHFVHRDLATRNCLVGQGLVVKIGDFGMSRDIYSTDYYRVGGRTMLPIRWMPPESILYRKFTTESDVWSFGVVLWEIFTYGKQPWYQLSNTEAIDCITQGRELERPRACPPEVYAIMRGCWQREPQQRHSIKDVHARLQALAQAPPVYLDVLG

Row | Structure (SMILES) | IC50 (human trkA receptor) [nM] | inhibition in vivo at 10 mg/kg [1] [%] | other results
1 | Nc1cc(-c2nc(C(=O)Nc3ccccc3C(=O)Nc3cccnc3)co2)ccn1 [Example 220] | 4.2 |  | 
2 | CN(CC1CCOCC1)c1nc(C(=O)Nc2ccccc2C(=O)Nc2cccnc2)cs1 [Ex 30] | 0.57 | 90 | 
3 | CCOCc1ccc(NC(=O)c2csc(N3CC[C@H](OC)C3)n2)c(C(=O)NCCOC)c1 [Example 1449] | 8.8 | 76 | 
4 | COCCNC(=O)c1cc(CN2CCOCC2)ccc1NC(=O)c1csc(N(C)CCOC)n1 [Example 1469] | 9.8 | 90 | 
5 | CC(=O)c1cc(C2(C#N)CC2)ccc1NC(=O)c1csc(N2CCC(Oc3ncccn3)CC2)n1 [Example 628] | 1.7 |  | 
6 | COCCNC(=O)c1cc(CN2CCOCC2(C)C)ccc1NC(=O)c1csc(N2CC[C@H](OC)C2)n1 [Example 1343] | 9.9 | 87 | 
7 | O=C(Nc1ccccc1S(=O)(=O)C(F)F)c1csc(N2CCC(Oc3ncccn3)CC2)n1 [Example 611] | 2.1 |  | 
8 | COCCNC(=O)c1cc(CN2CCO[C@@H](C)C2)ccc1NC(=O)c1csc(N2CC[C@H](OC)C2)n1 [Example 1181, N-(2-[(2-methoxyethyl)carbamoyl]-4-{[(2S)-2-methylmorpholin-4-yl]methyl}phenyl)-2-[(3S)-3-methoxypyrrolidin-1-yl]-1,3-thiazole-4-carboxamide fumarate] | 12 | 81 | 
9 | O=C(Nc1ccncc1C(=O)NC1CCOCC1)c1csc(N2CCC(Oc3ncccn3)CC2)n1 [Example 602] | 1.1 |  | Rate in cange of effective bladder capacity [2, 3]: 152%
10 | COCCNC(=O)c1cc(CN2CCOCC2)ccc1NC(=O)c1csc(N2CC(OC)C2)n1 [Example 1435] | 36 | 71 | 
11 | COCCN(C)c1nc(C(=O)Nc2ccccc2C(=O)Nc2cccnc2)cs1 [Example 103] | 2.9 | 98 | Rate in cange of effective bladder capacity ([2]; oral dose 3 mg/kg, evaluation period 5-65 minutes after administration): 145%
12 | COC[C@@H](C)NC(=O)c1cc(CN2CCOCC2)ccc1NC(=O)c1csc(N2CC(OC)C2)n1 [Example 1439] | 25 | 76 | 
13 | COCCN(C)c1nc(C(=O)Nc2ccccc2C(=O)NC2CCOCC2)co1 [Example 361] | 35 | 78 | Rate in cange of effective bladder capacity [2, 4]: 144%
14 | CCOC1CCN(c2nc(C(=O)Nc3ccccc3C(=O)NC3CCOCC3)cs2)CC1 [Ex 28] | 27 | 92 | 
15 | CN(CC1CCOCC1)c1nc(C(=O)Nc2ccc(CN3CCOCC3)cc2C(=O)NC2CCOCC2)cs1 [Example 930] | 6.8 |  | Inhibitory rate [1]: 86%; Rate in cange of effective bladder capacity [2, 3]: 170%
16 | O=C(Nc1ccc(CO)cc1Cl)c1csc(N2CCC(Oc3ncccn3)CC2)n1 [Ex 3] | 5.4 |  | 
17 | COCCNC(=O)c1cc(CN2CCOCC2)ccc1NC(=O)c1csc(N2CCC(Oc3ncccn3)CC2)n1 [Example 564] | 3.1 |  | Inhibitory rate [1]: 90%; Rate in cange of effective bladder capacity [2, 3]: 146%
18 | COCCNC(=O)c1cc(CN2CCOCC2)ccc1NC(=O)c1csc(N2CC[C@H](F)C2)n1 [Example 1470] | 18 | 76 | 
19 | CO[C@H]1CCN(c2nc(C(=O)Nc3ccccc3C(=O)Nc3cccnc3)co2)C1 [Example 206] | 6.8 |  | Rate in cange of effective bladder capacity [2, 4]: 159%
20 | O=C(Nc1ccccc1C(=O)Nc1cccnc1)c1coc(N2CCOCC2)n1 [Ex 11] | 6.9 | 69 | 
